Measured values reported in US12344603B2 (Genentech, Inc., priority 2020, dated 2025).

Each molecule was assayed against IRE1α (Homo sapiens (Human), UniProt O75460, D688N) (assay: IRE1α TR-FRET competition binding assay (IRE1α HTRF)). Settings: TR-FRET competition binding to kinase domain of IRE1α.
Outline: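 Kinase domain (0.25 nM) pre-bound to 2 nM Eu anti-His antibody for 1 h at 4° C in HEPES pH 7.5/MgCl2/Brij 35/DTT/gamma globulin buffer, then mixed with compounds and 2 nM Alexa 647 ATP-competitive probe. 1 h at room temperature; probe displacement read as TR-FRET (Ex 347 nm, Em 665/615 nm).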

IRE1α, sequence (O75460 547-977 D688N): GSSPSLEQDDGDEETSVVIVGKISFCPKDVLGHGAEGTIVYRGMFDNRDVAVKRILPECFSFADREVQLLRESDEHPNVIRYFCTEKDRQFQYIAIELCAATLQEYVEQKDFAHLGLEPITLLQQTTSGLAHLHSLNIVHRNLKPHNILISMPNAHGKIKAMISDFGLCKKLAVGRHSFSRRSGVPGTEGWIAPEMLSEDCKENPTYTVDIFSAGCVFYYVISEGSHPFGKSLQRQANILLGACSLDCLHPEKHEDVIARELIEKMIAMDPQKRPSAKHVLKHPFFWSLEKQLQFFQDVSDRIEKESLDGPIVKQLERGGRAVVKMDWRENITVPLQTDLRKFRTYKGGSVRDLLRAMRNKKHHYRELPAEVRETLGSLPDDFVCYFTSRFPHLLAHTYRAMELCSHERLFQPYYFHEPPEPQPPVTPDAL

Compared with `CC(C)n1c(=O)c(-c2ccc(NS(=O)(=O)CC3CCC3(F)F)c(F)c2)cc2cnc(N[C@H]3CC[C@H](N(C)C)CC3)nc21` (single isomer, unassigned) [Compound 153A, 1-(2,2-Difluorocyclobutyl)-N-(4-(2-(((1r,4r)-4-(dimethylamino)cyclohexyl)amino)-8-isopropyl-7-oxo-7,8-dihydropyrido[2,3-d]pyrimidin-6-yl)-2-fluorophenyl)methanesulfonamide], `CC(C)n1c(=O)c(-c2ccc(NS(=O)(=O)CC3CCCC3)c(F)c2)nc2cnc(N[C@H]3CC[C@H](N(C)C)CC3)nc21` [Example 267, 1-Cyclopentyl-N-[4-[2-[[4-(dimethylamino)cyclohexyl]amino]-8-isopropyl-7-oxo-pteridin-6-yl]-2-fluoro-phenyl]methanesulfonamide] is 2.1-fold lower in IC50: 0.21 nM for the first, 0.1 nM for the second. The second is the more potent here.

`Cc1nc(NS(=O)(=O)c2ccccc2Cl)ccc1-c1nc2cnc(N[C@H]3CC[C@H](N(C)C)CC3)nc2n(C(C)C)c1=O` [Example 254, N-[5-[2-[[4-(Dimethylamino)cyclohexyl]amino]-8-isopropyl-7-oxo-pteridin-6-yl]-6-methyl-2-pyridyl]-2-chloro-benzenesulfonamide] and `Cc1nc(NS(=O)(=O)c2ccccc2C#N)ccc1-c1nc2cnc(N[C@H]3CC[C@H](N(C)CCF)CC3)nc2n(C(C)C)c1=O` [Compound 194, 2-Cyano-N-(5-(2-(((1r,4r)-4-((2-fluoroethyl)(methyl)amino)cyclohexyl)amino)-8-isopropyl-7-oxo-7,8-dihydropteridin-6-yl)-6-methylpyridin-2-yl)benzenesulfonamide] are within 1.5-fold of each other in IC50: 0.3 nM for the first, 0.31 nM for the second.

First: CC(C)Nc1ncc2cc(-c3cc(F)c(NS(=O)(=O)Cc4ccccc4)c(F)c3F)c(=O)n(C(C)C)c2n1 [Compound 20, 1-Phenyl-N-(2,3,6-trifluoro-4-(8-isopropyl-2-(isopropylamino)-7-oxo-7,8-dihydropyrido[2,3-d]pyrimidin-6-yl)phenyl)methanesulfonamide]
Second: O=c1c(-c2cc(F)c(NS(=O)(=O)Cc3ccccc3)c(F)c2F)cc2cnc(N[C@@H]3CNC[C@@H](F)C3)nc2n1C1CCC1 [Compound 28, N-(4-(8-Cyclobutyl-2-(((3S,5S)-5-fluoropiperidin-3-yl)amino)-7-oxo-7,8-dihydropyrido[2,3-d]pyrimidin-6-yl)-2,3,6-trifluorophenyl)-1-phenylmethanesulfonamide]
The IC50 of the first is 6.3-fold higher: 1.2 nM for the first, 0.19 nM for the second. The second is the more potent here.

First: CC(C)n1c(=O)c(-c2ccc(NS(=O)(=O)CCC(F)(F)F)c(F)c2)cc2cnc(NC3CCC4(CC3)CN(CCF)C4)nc21 [Example 235, 3,3,3-trifluoro-N-(2-fluoro-4-(2-((2-(2-fluoroethyl)-2-azaspiro-[3.5]nonan-7-yl)amino)-8-isopropyl-7-oxo-7,8-dihydropyrido[2,3-d]-pyrimidin-6-yl)phenyl)-propane-1-sulfonamide]
Second: CC(C)n1c(=O)c(-c2ccc(NS(=O)(=O)CCC(F)(F)F)c(F)c2)cc2cnc(NC3CCNCC3)nc21 [Compound 201, 3,3,3-Trifluoro-N-(2-fluoro-4-(8-isopropyl-7-oxo-2-(piperidin-4-ylamino)-7,8-dihydropyrido[2,3-d]pyrimidin-6-yl)phenyl)propane-1-sulfonamide]
The IC50 of the first is 29-fold lower: 0.3 nM for the first, 8.7 nM for the second. The first is the more potent here.

Compared with `CC(C)n1c(=O)c(-c2ccc(NS(=O)(=O)Cc3ccccc3F)cn2)cc2cnc(N[C@@H]3CNC[C@@H](F)C3)nc21` [Compound 95, 1-(2-Fluorophenyl)-N-(6-(2-(((3S,5S)-5-fluoropiperidin-3-yl)amino)-8-isopropyl-7-oxo-7,8-dihydropyrido[2,3-d]pyrimidin-6-yl)pyridin-3-yl)methanesulfonamide], `CC(C)n1c(=O)c(-c2ccc(NS(=O)(=O)Cc3ccccc3)c(F)c2)nc2cnc(N[C@@H]3CNC[C@@H](F)C3)nc21` [Compound 44, N-(2-Fluoro-4-(2-(((3S,5S)-5-fluoropiperidin-3-yl)amino)-8-isopropyl-7-oxo-7,8-dihydropteridin-6-yl)phenyl)-1-phenylmethanesulfonamide] is 1.6-fold lower in IC50: 0.46 nM for the first, 0.28 nM for the second. The second is the more potent here.

`CC(C)n1c(=O)c(-c2cc(F)c(NS(=O)(=O)Cc3ccc(Cl)cc3)c(F)c2)nc2cnc(N[C@H]3CC[C@H](N(C)C)CC3)nc21` [Example 243, 1-(4-Chlorophenyl)-N-[4-[2-[[4-(dimethylamino)cyclohexyl]amino]-8-isopropyl-7-oxo-pteridin-6-yl]-2,6-difluoro-phenyl]methanesulfonamide] and `Cc1nc(NS(=O)(=O)Cc2ccc(F)cc2)ccc1-c1nc2cnc(N[C@H]3CC[C@H](N(C)C)CC3)nc2n(C(C)C)c1=O` [Example 252, N-[5-[2-[[4-(Dimethylamino)cyclohexyl]amino]-8-isopropyl-7-oxo-pteridin-6-yl]-6-methyl-2-pyridyl]-1-(4-fluorophenyl)methanesulfonamide] are within 1.5-fold of each other in IC50: 0.8 nM for the first, 1 nM for the second.

Compared with `CC(C)n1c(=O)c(-c2ccc(NS(=O)(=O)c3ccccc3)nc2)cc2cnc(N[C@H]3CC[C@H](N(C)CCF)CC3)nc21` [Compound 144, N-(5-(2-(((1r,4r)-4-((2-Fluoroethyl)(methyl)amino)cyclohexyl)amino)-8-isopropyl-7-oxo-7,8-dihydropyrido[2,3-d]pyrimidin-6-yl)pyridin-2-yl)benzenesulfonamide], `CC(C)n1c(=O)c(-c2ccc(NS(=O)(=O)CCC(F)(F)F)nc2)nc2cnc(N[C@H]3CC[C@H](N(C)CCF)CC3)nc21` [Compound 187, 3,3,3-Trifluoro-N-(5-(2-(((1r,4r)-4-((2-fluoroethyl)(methyl)amino)cyclohexyl)amino)-8-isopropyl-7-oxo-7,8-dihydropteridin-6-yl)pyridin-2-yl)propane-1-sulfonamide] is 1.7-fold higher in IC50: 0.18 nM for the first, 0.31 nM for the second.

First: CC(C)n1c(=O)c(-c2cc(F)c(NS(=O)(=O)CCC(F)(F)F)cc2F)nc2cnc(N[C@H]3CC[C@H](N(C)C)CC3)nc21 [Compound 189, N-(4-(2-(((1r,4r)-4-(dimethylamino)cyclohexyl)amino)-8-isopropyl-7-oxo-7,8-dihydropteridin-6-yl)-2,5-difluorophenyl)-3,3,3-trifluoropropane-1-sulfonamide]
Second: CC(C)n1c(=O)c(-c2cnc(NS(=O)(=O)CCC(F)(F)F)nc2)cc2cnc(N[C@H]3CC[C@H](N(C)C)CC3)nc21 [Example 233, N-(5-(2-(((1r,4r)-4-(Dimethylamino)cyclohexyl)amino)-8-isopropyl-7-oxo-7,8-dihydropyrido[2,3-d]pyrimidin-6-yl)pyrimidin-2-yl)-3,3,3-trifluoropropane-1-sulfonamide]
The IC50 of the first is 2.7-fold lower: 0.49 nM for the first, 1.3 nM for the second.

Compared with `O=c1c(-c2ccc(NS(=O)(=O)Cc3ccccc3)c(F)c2F)cc2cnc(N[C@@H]3CNC[C@@H](F)C3)nc2n1C1CCCC1` [Compound 18, N-(4-(8-Cyclopentyl-2-(((3S,5S)-5-fluoropiperidin-3-yl)amino)-7-oxo-7,8-dihydropyrido[2,3-d]pyrimidin-6-yl)-2,3-difluorophenyl)-1-phenylmethanesulfonamide], `CCC1CCN(c2ccc(-c3cc4cnc(N[C@@H]5CNC[C@@H](F)C5)nc4n(CC)c3=O)c(F)c2F)C1=O` (stereo partly drawn) [Compound 41, 8-Ethyl-6-(4-(3-ethyl-2-oxopyrrolidin-1-yl)-2,3-difluorophenyl)-2-(((3S,5S)-5-fluoropiperidin-3-yl)amino)pyrido[2,3-d]pyrimidin-7(8H)-one] is 210-fold higher in IC50: 0.41 nM for the first, 87 nM for the second.
